Like-named read-outs stand apart in the source and are kept apart here. Marks after values point to notes of the source that are not given here.
Assays:
[1] = system: NCI-H1299 human NSCLC xenograft tumors; conditions: Compound A1 2 mg/kg 2QD 2on/5off p.o., docetaxel 15 mg/kg QD 1on/6off i.v.; for T/C area: relative mean tumor area, 20 treatment days
Excerpt: The effect of combination treatment of an Mps-1 kinase inhibitor (Compound A1) with docetaxel, another SAC activating, […], anti-mitotic agent, used as standard of care in NSCLC patients, was studied in the NCI-H1299 taxane intrinsically resistant human lung carcinoma (NSCLC) xenograft model in nude mice.
Docetaxel was applied intravenously once per week upon its respective MTD. Substances were formulated in optimal vehicles to achieve solutions. Animal body weight and tumor size were determined two times weekly. […] For combination treatment Compound A1and docetaxel were applied at the same day within a time frame of 4 hours. Animals of control and Mps-1 kinase inhibitor monotherapy group were treated for a duration of 20 days. Animals of docetaxel monotherapy and docetaxel/Mps-1 kinase inhibitor combination treatment groups were treated for a duration of 42 days. At the end of the study after one final treatment plasma and tumors were sampled for PK analysis and final tumor weight was determined.
(§1) NCI-H1299 human NSCLC tumor cells were implanted s.c. into nude mice on day 0. […] Compound A1 was administered orally (p.o.) upon 2.0 mg/kg twice daily (2QD) for 2 days on/5 days off (2 on/5 off) in monotherapy and in combination with docetaxel. Docetaxel was administered intravenously (i.v.) upon 15 mg/kg once daily (QD) once per week (1 on/6 off) in monotherapy and combination therapy. Tumor growth was monitored by determination of the tumor area using calliper measurement two to three times weekly. FIG. 2A: Time course of tumor growth. FIG. 2B: Weight of tumors in docetaxel/Mps-1 kinase inhibitor combination group at the end of the study at day 52 after tumor cell inoculation. FIG. 2C: Time course of animal body weight change during the course of the study.

[2] = Maximum tolerated dose (MTD); type: in vivo, nude mice
[3] = system: NCI-H1299 human NSCLC xenograft tumors; conditions: Compound A1 0.45 mg/kg 2QD 2on/5off p.o., paclitaxel 20 mg/kg QD 1on/6off i.v.; for T/C area: relative mean tumor area, 28 treatment days
Procedure: The effect of combination treatment of an Mps-1 inhibitor and paclitaxel was studied in the NCI-H1299 taxane intrinsically resistant human lung carcinoma (NSCLC) xenograft model in nude mice.
(§2) Paclitaxel was applied intravenously once per week upon its respective MTD. Substances were formulated in optimal vehicles to achieve solutions. Animal body weight and tumor size were determined two to three times weekly. […] For combination treatment, the Compound A1 and paclitaxel were applied at the same day within a time frame of 4 hours. Animals of control and monotherapy group (Compound A1 only) were treated for a duration of 28 days. Animals of paclitaxel monotherapy and paclitaxel/Mps-1 inhibitor treatment groups were treated for a duration of 37 days. At the end of the study after one final treatment plasma and tumors were sampled for PK analysis and final tumor weight was determined.
as §1, with “FIGS. 1A and 1B show the response of NCI-H1299 human NSCLC xenograft tumors to treatment with Compound A1 in combination with paclitaxel. NCI-H1299” for “NCI-H1299”, “0.45” for “2.0”, “paclitaxel. Paclitaxel” for “docetaxel. Docetaxel”, “20” for “15”, “1A:” for “2A:”, “1B:” for “2B: Weight of tumors in docetaxel/Mps-1 kinase inhibitor combination group at the end of the study at day 52 after tumor cell inoculation. FIG. 2C:”

[4] = system: MDA-MB 231 human triple-negative breast cancer xenograft tumors; conditions: Compound A1 1 mg/kg 2QD 2on/5off p.o., paclitaxel 20 mg/kg QD 1on/6off i.v.; for T/C area: relative mean tumor area, 28 treatment days
Procedure: The effect of combination treatment of an Mps-1 kinase inhibitor (Compound A1) and paclitaxel was studied in the MDA-MB 231 human triple-negative (no expression of Her2/neu, progesterone receptor, estrogen receptor) xenograft model in nude mice.
as §2, with “determined” for “determined two to”, “treatment,” for “treatment, the”, “paclitaxel/Mps-1 kinase” for “paclitaxel/Mps-1”, “50” for “37”
MDA-MB 231 human breast cancer cells were implanted s.c. into nude mice on day 0. […] Compound A1 was administered orally (p.o.) upon 1 mg/kg twice daily (2QD) for 2 days on/5 days off (2 on/5 off) in monotherapy and in combination with paclitaxel. Paclitaxel was administered intravenously (i.v.) upon 20 mg/kg once daily (QD) once per week (1 on/6 off) in monotherapy and combination therapy. Tumor growth was monitored by determination of the tumor area using calliper measurement three times weekly. FIG. 3A: Time course of tumor growth. FIG. 3B: Weight of tumors in paclitaxel/Mps-1 kinase inhibitor combination group at the end of the study at day 73 after tumor cell inoculation. FIG. 3C: Time course of animal body weight change during the course of the study.

[5] = system: primary human NSCLC xenograft model LU387; assay: Combination with paclitaxel in primary human NSCLC xenograft model LU387; type: in vivo, nude mice; conditions: day 42; paclitaxel 20 mg/kg IV QW for 6 weeks, alone or in combination with Compound A1
Procedure: The effect of Compound A1 and paclitaxel compared with a vehicle was evaluated in the subcutaneous primary human NSCLC xenograft model LU387 on nude mice.

[6] = system: IGR-OV1 human ovarian carcinoma model
Procedure: Paclitaxel was administered IV QW at 50% of its respective MTD.

[7] = system: A2780cis xenograft model
Procedure: The effect of the combination treatment of Compound A1 with paclitaxel was studied in a human ovarian carcinoma model in nude mice, namely in the adaptive cisplatin-resistant and paclitaxel intrinsically-resistant A2780cis xenograft model. […] Paclitaxel was administered IV QW at its respective MTD.

[8] = system: MKN1 human gastric carcinoma model; conditions: mouse, in vivo
Procedure: (§3) Compound A1 was administered PO in the 2QD intermittent (2 days on/5 days off) dosing schedule up to the respective MTD in single-agent treatment and at a dose of 40% of the single-agent MTD in combination. Paclitaxel was administered IV QW at its respective MTD. Treatment for all groups started at a tumor size of 27 mm^2, on day 7 after tumor cell inoculation. For combination treatment, Compound A1 and paclitaxel were administered on the same day within a time of 4 hours. Animals of the control and Compound A1 single-agent treatment groups were treated for 40 days. Animals of the paclitaxel single-agent and Compound A1 with paclitaxel combination treatment groups were treated for 78 days.

[9] = system: cisplatin-resistant ovarian cancer cells A2780cis; assay: Mode of action: histopathology of A2780cis tumors after treatment
Procedure: To explain in vivo the mode of action of an Mps-1 kinase inhibitor in single-agent treatment and combination treatment with a taxane, female NMRI (Naval Medical Research Institute) nude mice were implanted with cisplatin-resistant ovarian cancer cells A2780cis.
Paclitaxel was administered IV (intravenous(ly)) QW (once per week (meaning the 1 day on/6 days off treatment schedule)) at its MTD (24 mg/kg) in single-agent and combination treatments. […] Tumors were embedded in paraffin, sections were prepared and stained with hematoxylin & eosin for histopathological analysis.

[10] = system: MKN1 human gastric carcinoma model; assay: Combination with paclitaxel in MKN1 human gastric carcinoma model
Procedure: as §3

[11] = system: human glioblastoma model U87 MG; assay: Combination with vincristine in human glioblastoma model U87 MG (intracerebral); type: in vivo, nude mice
Procedure: The study was designed to determine the response of this glioblastoma model to the treatment with the investigational Compound A1 and vincristine, both alone at a fixed dose, and vincristine in combination with two different doses, both lower than that of Compound A1 used in the monotherapy schedule. The size of the glioblastoma was used as read out parameter for response.
The cell culture derived human xenograft U87 MG was initiated by transplantation of the tumor cells into the left hemisphere of the mouse brain. Treatment was done in three cycles between day 3 and day 19. Mice were sacrificed at day 24, the brain isolated and shock frozen in 2 methyl-butane. Tumor size were determined as measure for tumor growth inhibition from cryo-slizes after staining.

[12] = after 78 treatment days, paclitaxel 24 mg/kg IV QW
[13] = day 24, single agents: Gr. B Compound A1 2.5 mg/kg p.o., Gr. C Vincristine 0.75 mg/kg i.p.

CC(=O)O[C@@]12CO[C@@H]1C[C@H](O)[C@@]1(C)C(=O)[C@H](O)C3=C(C)[C@@H](OC(=O)[C@H](O)[C@@H](NC(=O)OC(C)(C)C)c4ccccc4)C[C@@](O)([C@@H](OC(=O)c4ccccc4)[C@H]21)C3(C)C [Docetaxel, 1,7β,10β-trihydroxy-9-oxo-5β,20-epoxytax-11-ene-2α,4,13α-triyl 4-acetate 2-benzoate 13-{(2R,3S)-3-[(tert-butoxycarbonyl)amino]-2-hydroxy-3-phenylpropanoate}, reference compound]
Fatal Tox [1]: 0/8 | Max. Body weight loss (%) [1]: −2% | T/C area [1]: 0.16^# | T/C area ([1]; listed as docetaxel): 0.16 | MTD ([2]; nude, mouse, in vivo, Compound A1 PO 2QD 2 days on/5 days off, paclitaxel IV QW, docetaxel i.v. 1 day on/6 days off, read-out: MTD (maximum tolerated dose), single-agent): 15 mg/kg

CC(=O)O[C@H]1C(=O)[C@@]2(C)[C@H]([C@H](OC(=O)c3ccccc3)[C@]3(O)C[C@H](OC(=O)[C@H](O)[C@@H](NC(=O)c4ccccc4)c4ccccc4)C(C)=C1C3(C)C)[C@]1(OC(C)=O)CO[C@@H]1C[C@@H]2O [Paclitaxel, (2α,4α,5β,7β,10β,13α)-4,10-bis(acetyloxy)-13-{[(2R, 3S)-3-(benzoylamino)-2-hydroxy-3-phenylpropanoyl]oxy}-1,7-dihydroxy-9-oxo-5,20-epoxytax-11-en-2-yl benzoate, reference compound]
Fatal Tox [3]: 0/10 | T/C area [3]: 0.28^# | T/C area ([3]; listed as paclitaxel): 0.28 | Fatal Tox [4]: 0/10 | T/C area [4]: 0.14^# | T/C area ([4]; listed as paclitaxel): 0.14 | mean tumor size [5]: 1494 mm^3 | relative T/Carea ([6]; 38 treatment days, Compound A1 single agent 2.5 mg/kg PO 2QD, paclitaxel 12 mg/kg IV QW, combination with Compound A1 2 mg/kg PO 2QD): 0.34 | anti-tumor efficacy (in words) ([6]; Compound A1 2.5 mg/kg single agent (38 days), paclitaxel 12 mg/kg and combination with Compound A1 2 mg/kg (treatment day 38 to 59)): clear tumor progression | tolerability (in words) ([6]; mouse, in vivo): well tolerated without critical body weight loss or toxicities | relative T/Carea ([7]; 14 treatment days, Compound A1 1 mg/kg PO 2QD 2 days on/5 days off, paclitaxel 24 mg/kg IV QW): 0.09 | tolerability (in words) ([7]; mouse, in vivo): well tolerated without critical body weight loss or toxicities | MTD (maximum tolerated dose), single-agent ([2]; paclitaxel i.v. 1 day on/6 days off, as stated for the NCI-H1299 study): 20 mg/kg | tolerability (in words) [8]: overall well tolerated without critical body weight loss | histopathological phenotype of tumor tissue ([9]; paclitaxel 24 mg/kg IV QW single agent, 4 and 8 hours after treatment): induced atypical mitoses | histopathological phenotype of tumor tissue ([9]; paclitaxel 24 mg/kg IV QW single agent, 28, 32 and 48 hours after treatment): increased necrosis and apoptosis | relative T/Carea ([10]; 40 treatment days, paclitaxel 24 mg/kg IV QW, combination with Compound A1 1 mg/kg PO 2QD 2 days on/5 days off): 0.05 | partial regression (% of tumors) [10, 12]: 20% | tumor growth delay (% of tumors) [10, 12]: 80% | anti-tumor efficacy (in words) ([10]; mouse, in vivo): overall disease stabilization | Fatal toxicity (number of animals) ([10]; paclitaxel group: Treatment Day 57, combination group: after the first treatment cycle): 1

CC[C@]1(O)C[C@H]2CN(CCc3c([nH]c4ccccc34)[C@@](C(=O)OC)(c3cc4c(cc3OC)N(C=O)[C@H]3[C@@](O)(C(=O)OC)[C@H](OC(C)=O)[C@]5(CC)C=CCN6CC[C@]43[C@@H]65)C2)C1 [Vincristine, vincristine, reference compound]
inhibition of tumor growth ([11]; Gr. C vincristine alone, Gr. D combination of high dose Compound A1 and vincristine): 38.6% | Brain tumor inside [mm^2] ([11]; day 24, single agents: Gr. B Compound A1 2.5 mg/kg p.o. BIDx2x3, Gr. C Vincristine 0.75 mg/kg i.p. 1xqWx3): 10.69 +/− 6.71 mm^2 | Brain tumor outside [mm^2] [11, 13]: 4.50 +/− 1.66 mm^2 | Brain tumor total [mm^2] [11, 13]: 13.26 +/− 7.25 mm^2 | T/C (inside T) [%] [11, 13]: 61.4%
